Results from patent US10919941B2, “Functional lipid constructs” (KODE BIOTECH LIMITED, priority 2007, dated 2021).
No end group written: not given here.

Columns and labels:
[1] = tested on: natural Mi III antibody reactive human serums; test: Positive serum reactivity of modified RBCs in the field; type: cell-based; set-up: key: 0 or ‘−’ no agglutination; 0 or ‘−’ no agglutination; 1+ or 3=very weak agglutination; 1+ or 3=very weak agglutination; 2+ or 5=weak agglutination; 2+ or 5=weak agglutination; 3+ or 8=moderate strong agglutination; 3+ or 8=moderate strong agglutination; 4+ or 10/12=strong agglutination; 4+ or 10/12=strong agglutination; 4+ or 10/12=strong agglutination; settings: 22 at 50, 17 and 24 at 200 μg/ml; 3 h RT then 18 h 4° C.
Method: The suspensions are either: • 1. incubated for 2 hours at 37° C. before being washed and suspended in a cell medium for serological analysis at a concentration of 0.8 to 3% (Method 1); or • 2. incubated for 3 to 4 hours at room temperature (circa 25° C.) followed by 18 hours at 4° C. before being washed and suspended in a cell medium for serological analysis at a concentration of 0.8 to 3% (Method 2).
Serological reactions are graded or scored by either of two established systems (0 or ‘−’ no agglutination, 1+ or 3=very weak agglutination, 2+ or 5=weak agglutination, 3+ or 8=moderate strong agglutination, 4+ or 10/12=strong agglutination)

[2] = tested on: TAP1 serum (Taiwan Miltenberger antibody positive sample); test: Anti-MUT serum (TAP1) reactivity of modified RBCs (saline and AHG); type: cell-based, human; set-up: key: 0 or ‘−’ no agglutination; 0 or ‘−’ no agglutination; 1+ or 3=very weak agglutination; 1+ or 3=very weak agglutination; 2+ or 5=weak agglutination; 2+ or 5=weak agglutination; 3+ or 8=moderate strong agglutination; 3+ or 8=moderate strong agglutination; 4+ or 10/12=strong agglutination; 4+ or 10/12=strong agglutination; 4+ or 10/12=strong agglutination

M22: DOPE peptide-lipid construct: MUTK peptide SQTNDKHKRD, leader c, spacer CMG(2) (SQTNDKHKRDC; also: DOPE peptide-lipid construct via leader Cys, spacer CMG(2))
0: score vs Mi III reactive serum 589-6 [1] | score vs Mi III reactive serum 912485657-9 [1] | score vs Mi III reactive serum 914146821-8 [1] | score vs Mi III reactive serum 922390844-5 [1] | score vs Mi III reactive serum 926190919-0 [1] | score vs Mi III reactive serum 926555294-1 [1] | score vs Mi III reactive serum 927175131-4 [1] | score vs Mi III reactive serum 927299700-1 [1] | score vs Mi III reactive serum 927516053-2 [1] | score vs Mi III reactive serum 927619701-8 [1] | score vs Mi III reactive serum 932360876-4 [1] | score vs Mi III reactive serum 932467774-5 [1] | score vs Mi III reactive serum 932809044-1 [1] | score vs Mi III reactive serum 942223755-1 [1] | score vs Mi III reactive serum 942404708-4 (row interpreted Mur) [1] | score vs Mi III reactive serum 942404708-4 (row interpreted other) [1] | score vs Mi III reactive serum 942421413-0 [1] | score vs Mi III reactive serum 942423002-4 [1] | score vs Mi III reactive serum 942433813-3 [1] | score vs Mi III reactive serum 942433855-3 [1] | score vs Mi III reactive serum 942442720-2 [1] | score vs Mi III reactive serum 942448627-8 [1] | score vs Mi III reactive serum 942753165-4 [1] | score vs Mi III reactive serum 942762589-1 [1] | score vs Mi III reactive serum 9322338631 [1] | score vs Mi III reactive serum 9328118428 [1] | score vs Mi III reactive serum 9328154853 [1] | score vs Mi III reactive serum 9424248012 [1] | score vs Mi III reactive serum 9424292604 [1] | score vs Mi III reactive serum 9424396133 [1] | score vs Mi III reactive serum 9425256505 [1] | score vs Mi III reactive serum 9427455417 [1] | score vs Mi III reactive serum 9427613497 [1] | score vs Mi III reactive serum 9427615156 [1] | score vs Mi III reactive serum S-3 [1] | TAP 1 Serum, Saline score ([2]; construct 10 μg/ml) | TAP 1 Serum, Saline score ([2]; construct 20 μg/ml) | TAP 1 Serum, Saline score ([2]; construct 50 μg/ml) | TAP 1 Serum, Saline score ([2]; construct 100 μg/ml) | TAP 1 Serum, Saline score ([2]; construct 200 μg/ml)
8: score vs Mi III reactive serum 9327986660 [1] | TAP 1 Serum, AHG score ([2]; construct 20 μg/ml) | TAP 1 Serum, AHG score ([2]; construct 50 μg/ml) | Reactivity with anti-MUT serum TAP1 ([2]; construct 50 μg/ml (2 hours, 37° C.)) | TAP 1 Serum, AHG score ([2]; construct 100 μg/ml)
5: score vs Mi III reactive serum 621-3 [1] | score vs Mi III reactive serum 9325490091 [1] | score vs Mi III reactive serum 9328791834 [1] | TAP 1 Serum, AHG score ([2]; construct 10 μg/ml)
10: score vs Mi III reactive serum 488-6 [1] | TAP 1 Serum, AHG score ([2]; construct 200 μg/ml)
